Values quoted from earlier work in patent US8277782B2, “Topical oral care compositions comprising host response modulating agents” (The Procter & Gamble Company, priority 2000, dated 2012).

System: alveolar bone
Settings: non steroidal anti-inflammatory drugs, cyclo-oxygenase inhibitors; prior knowledge

Structure (SMILES) | resorption of alveolar bone
CC(C(=O)O)c1ccc(-c2ccccc2)c(F)c1 (centres unmarked) [flurbiprofen] | markedly reduce
COc1ccc2c(c1)c(CC(=O)O)c(C)n2C(=O)c1ccc(Cl)cc1 [indomethacin] | markedly reduce
